# Laboratory results from patent publication USRE48461E1, “Modulation of androgen receptor expression” (Ionis Pharmaceuticals, Inc., priority 2012, dated 2021).
# Oligonucleotides are written 5' to 3', each unit as a sugar letter and its base; * is a phosphorothioate linkage, no mark a phosphodiester; rarer units and linkages stand in square brackets, end groups in braces. Plain capitals give the bases only. k = constrained ethyl (cEt); [5mC] = 5-methylcytosine; d = 2'-deoxy (DNA)
# Legend:
# AR mRNA [1] = test: Dose-dependent antisense inhibition of human AR in HuVEC cells (electroporation, qRT-PCR RTS3559, IC50); format: cell-based; settings: HuVEC
# Experimental: (§1) After a treatment period of approximately 16 hours, RNA was isolated from the cells and AR mRNA levels were measured by quantitative real-time PCR. Human AR primer probe set RTS3559 was used to measure mRNA levels. AR mRNA levels were adjusted according to total RNA content, as measured by RIBOGREEN®. […] The antisense oligonucleotides were tested in a series of experiments that had similar culture conditions.
# as §1, §1, §1, §1
# (§2) After a treatment period of approximately 16 hours, RNA was isolated from the cells and AR mRNA levels were measured by quantitative real-time PCR. Human AR primer probe set RTS3559 was used to measure mRNA levels. AR mRNA levels were adjusted according to total RNA content, as measured by RIBOGREEN®.
# as §2
# AR mRNA [2] = test: Antisense inhibition of human AR in HuVEC cells, single concentration (electroporation, qRT-PCR RTS3559); format: cell-based
# Experimental: Antisense oligonucleotides were designed targeting an AR nucleic acid and were tested for their effects on AR mRNA in vitro. The antisense oligonucleotides were tested in a series of experiments that had similar culture conditions. […] Human primer probe set RTS3559 (forward sequence [NT], designated herein as SEQ ID NO: 9; reverse sequence [NT], designated herein as SEQ ID NO: 10; probe sequence [NT], designated herein as SEQ ID NO: 11) was used to measure mRNA levels. AR mRNA levels were adjusted according to total RNA content, as measured by RIBOGREEN®. […] A total of 155 oligonucleotides were tested. Additional antisense oligonucleotides were designed targeting an AR nucleic acid and were tested for their effects on AR mRNA in vitro. […] Human primer probe set RTS3559 was used to measure mRNA levels. AR mRNA levels were adjusted according to total RNA content, as measured by RIBOGREEN®. […] A total of 82 oligonucleotides were tested. Additional antisense oligonucleotides were designed targeting an AR nucleic acid and were tested for their effects on AR mRNA in vitro. […] Human primer probe set RTS3559 was used to measure mRNA levels. AR mRNA levels were adjusted according to total RNA content, as measured by RIBOGREEN®. […] A total of 40 oligonucleotides were tested. Additional antisense oligonucleotides were designed targeting an AR nucleic acid and were tested for their effects on AR mRNA in vitro. […] Human primer probe set RTS3559 was used to measure mRNA levels. AR mRNA levels were adjusted according to total RNA content, as measured by RIBOGREEN®. […] A total of 75 oligonucleotides were tested. Additional antisense oligonucleotides were designed targeting an AR nucleic acid and were tested for their effects on AR mRNA in vitro. […] Human primer probe set RTS3559 was used to measure mRNA levels. AR mRNA levels were adjusted according to total RNA content, as measured by RIBOGREEN®. […] A total of 616 oligonucleotides were tested. Additional antisense oligonucleotides were designed targeting an AR nucleic acid and were tested for their effects on AR mRNA in vitro. […] Human primer probe set RTS3559 was used to measure mRNA levels. AR mRNA levels were adjusted according to total RNA content, as measured by RIBOGREEN®. […] A total of 385 oligonucleotides were tested.
# [3] = Table 34, electroporation, approximately 16 hours
# [4] = Table 23, 500 nM oligonucleotide, electroporation, approximately 24 hours, relative to untreated control
# [5] = Table 31, electroporation, approximately 16 hours
# [6] = Table 29, electroporation, approximately 16 hours
# [7] = Table 35, electroporation, approximately 16 hours
# [8] = 500 nM ASO, electroporation, ~24 h, Table 1
# [9] = Table 30, electroporation, approximately 16 hours
# [10] = Table 32, electroporation, approximately 16 hours
substance,measurement,setting,value
549457 (kT*kT*kG*dA*dT*dT*dT*dA*dA*dT*dG*dG*dT*kT*kG*k[5mC]) [compound 549457],percent inhibition of AR,"AR mRNA [1]; 31.25 nM, ~16 h, Table 6",40%
same,percent inhibition of AR,"AR mRNA [1]; 31.25 nM, ~16 h, Table 8",34%
same,percent inhibition of AR,"AR mRNA [1]; 55.6 nM, ~16 h, Table 4",70%
same,percent inhibition of AR,"AR mRNA [1]; 62.5 nM, ~16 h, Table 6",57%
same,percent inhibition of AR,"AR mRNA [1]; 62.5 nM, ~16 h, Table 8",44%
same,percent inhibition of AR,"AR mRNA [1]; 125.0 nM, ~16 h, Table 6",78%
same,percent inhibition of AR,"AR mRNA [1]; 125.0 nM, ~16 h, Table 8",75%
same,percent inhibition of AR,"AR mRNA [1]; 166.7 nM, ~16 h, Table 4",95%
same,percent inhibition of AR,"AR mRNA [1]; 500.0 nM, ~16 h, Table 4",99%
same,percent inhibition of AR,"AR mRNA [1]; 500.0 nM, ~16 h, Table 6",96%
same,percent inhibition of AR,"AR mRNA [1]; 500.0 nM, ~16 h, Table 8",93%
same,percent inhibition of AR,"AR mRNA [1]; 1000.0 nM, ~16 h, Table 6",96%
same,percent inhibition of AR,"AR mRNA [1]; 1000.0 nM, ~16 h, Table 8",96%
same,percent inhibition of AR,"AR mRNA [1]; 1500.0 nM, ~16 h, Table 4",99%
same,IC50,"AR mRNA [1]; ~16 h, Table 4",0.018 µM
same,IC50,"AR mRNA [1]; ~16 h, Table 6",0.03 µM
same,IC50,"AR mRNA [1]; ~16 h, Table 8",0.06 µM
same,% inhibition,"AR mRNA [2]; 250 nM ASO, ~24 h, Table 7",67%
same,% inhibition,"AR mRNA [2]; 500 nM ASO, electroporation, ~24 h, Table 2",98%
same,% inhibition,"AR mRNA [2]; 500 nM ASO, ~24 h, Table 5",98%
584125 (kG*k[5mC]*k[5mC]*dA*dT*dG*dA*dG*dA*d[5mC]*dA*dG*d[5mC]*kT*kT*kT; antisense) [compound 584125],"percent inhibition of AR, 46.9 nM",AR mRNA [1]; [3],12%
same,"percent inhibition of AR, 187.5 nM",AR mRNA [1]; [3],12%
same,"percent inhibition of AR, 750.0 nM",AR mRNA [1]; [3],47%
same,"percent inhibition of AR, 3000.0 nM",AR mRNA [1]; [3],76%
same,IC50,AR mRNA [1]; [3],0.72 µM
same,% inhibition,AR mRNA [2]; [4],35%
583746 (antisense kT*kG*k[5mC]*dG*d[5mC]*dT*d[5mC]*dG*d[5mC]*dG*dG*d[5mC]*d[5mC]*kT*k[5mC]*kT) [compound 583746],"percent inhibition of AR, 46.9 nM",AR mRNA [1]; [5],24%
same,"percent inhibition of AR, 187.5 nM",AR mRNA [1]; [5],44%
same,"percent inhibition of AR, 750.0 nM",AR mRNA [1]; [5],65%
same,"percent inhibition of AR, 3000.0 nM",AR mRNA [1]; [5],67%
same,IC50,AR mRNA [1]; [5],0.35 µM
same,% inhibition,"AR mRNA [2]; 500 nM ASO, ~24 h, Table 18",32%
583609 (antisense k[5mC]*kA*kG*d[5mC]*dT*dA*dG*d[5mC]*dT*d[5mC]*dG*d[5mC]*d[5mC]*k[5mC]*kG*k[5mC]) [compound 583609],"percent inhibition of AR, 46.9 nM",AR mRNA [1]; [6],16%
same,"percent inhibition of AR, 187.5 nM",AR mRNA [1]; [6],48%
same,"percent inhibition of AR, 750.0 nM",AR mRNA [1]; [6],63%
same,"percent inhibition of AR, 3000.0 nM",AR mRNA [1]; [6],73%
same,IC50,AR mRNA [1]; [6],0.36 µM
same,% inhibition,"AR mRNA [2]; 500 nM ASO, ~24 h, Table 17",51%
584138 (k[5mC]*kG*k[5mC]*dG*d[5mC]*dA*dG*dG*dT*dA*dG*dG*dA*kG*k[5mC]*k[5mC]; antisense) [compound 584138],"percent inhibition of AR, 46.9 nM",AR mRNA [1]; [7],2%
same,"percent inhibition of AR, 187.5 nM",AR mRNA [1]; [7],40%
same,"percent inhibition of AR, 750.0 nM",AR mRNA [1]; [7],62%
same,"percent inhibition of AR, 3000.0 nM",AR mRNA [1]; [7],89%
same,IC50,AR mRNA [1]; [7],0.37 µM
same,% inhibition,AR mRNA [2]; [4],35%
549358 (kA*kT*kG*dG*dT*dG*d[5mC]*dT*dG*dG*d[5mC]*d[5mC]*dT*k[5mC]*kG*k[5mC]; antisense) [compound 549358],percent inhibition of AR,"AR mRNA [1]; 55.6 nM, ~16 h, Table 3",29%
same,percent inhibition of AR,"AR mRNA [1]; 166.7 nM, ~16 h, Table 3",63%
same,percent inhibition of AR,"AR mRNA [1]; 500.0 nM, ~16 h, Table 3",85%
same,percent inhibition of AR,"AR mRNA [1]; 1500.0 nM, ~16 h, Table 3",95%
same,IC50,"AR mRNA [1]; ~16 h, Table 3",0.141 µM
same,% inhibition,AR mRNA [2]; [8],91%
583713 (antisense kA*kT*k[5mC]*d[5mC]*dT*dT*dG*dA*dG*d[5mC]*dT*dT*dG*kG*k[5mC]*kT) [compound 583713],"percent inhibition of AR, 46.9 nM",AR mRNA [1]; [5],29%
same,"percent inhibition of AR, 187.5 nM",AR mRNA [1]; [5],51%
same,"percent inhibition of AR, 750.0 nM",AR mRNA [1]; [5],67%
same,"percent inhibition of AR, 3000.0 nM",AR mRNA [1]; [5],74%
same,IC50,AR mRNA [1]; [5],0.22 µM
same,% inhibition,"AR mRNA [2]; 500 nM ASO, ~24 h, Table 18",36%
583667 (antisense k[5mC]*kG*k[5mC]*dT*d[5mC]*dT*dG*dA*d[5mC]*dA*dG*d[5mC]*d[5mC]*kT*k[5mC]*kA) [compound 583667],"percent inhibition of AR, 46.9 nM",AR mRNA [1]; [9],35%
same,"percent inhibition of AR, 187.5 nM",AR mRNA [1]; [9],55%
same,"percent inhibition of AR, 750.0 nM",AR mRNA [1]; [9],73%
same,"percent inhibition of AR, 3000.0 nM",AR mRNA [1]; [9],82%
same,IC50,AR mRNA [1]; [9],0.14 µM
same,% inhibition,"AR mRNA [2]; 500 nM ASO, ~24 h, Table 17",42%
583649 (antisense kA*kG*kG*d[5mC]*dT*d[5mC]*dA*d[5mC]*dA*dG*dT*d[5mC]*dT*kG*kT*k[5mC]) [compound 583649],"percent inhibition of AR, 46.9 nM",AR mRNA [1]; [6],28%
same,"percent inhibition of AR, 187.5 nM",AR mRNA [1]; [6],50%
same,"percent inhibition of AR, 750.0 nM",AR mRNA [1]; [6],68%
same,"percent inhibition of AR, 3000.0 nM",AR mRNA [1]; [6],84%
same,IC50,AR mRNA [1]; [6],0.2 µM
same,% inhibition,"AR mRNA [2]; 500 nM ASO, ~24 h, Table 17",46%
583850 (kG*kG*kA*d[5mC]*dG*d[5mC]*dA*d[5mC]*dA*dG*d[5mC]*dG*dG*kG*kT*kG; antisense) [compound 583850],"percent inhibition of AR, 46.9 nM",AR mRNA [1]; [10],9%
same,"percent inhibition of AR, 187.5 nM",AR mRNA [1]; [10],21%
same,"percent inhibition of AR, 750.0 nM",AR mRNA [1]; [10],54%
same,"percent inhibition of AR, 3000.0 nM",AR mRNA [1]; [10],78%
same,IC50,AR mRNA [1]; [10],0.6 µM
same,% inhibition,"AR mRNA [2]; Table 20, 500 nM oligonucleotide, electroporation, approximately 24 hours, relative to untreated control",38%
583917 (kT*k[5mC]*kG*d[5mC]*dG*dA*d[5mC]*dT*d[5mC]*dT*dG*dG*dT*kA*k[5mC]*kG; antisense) [compound 583917],"percent inhibition of AR, 46.9 nM",AR mRNA [1]; [3],6%
same,"percent inhibition of AR, 187.5 nM",AR mRNA [1]; [3],30%
same,"percent inhibition of AR, 750.0 nM",AR mRNA [1]; [3],50%
same,"percent inhibition of AR, 3000.0 nM",AR mRNA [1]; [3],70%
same,IC50,AR mRNA [1]; [3],0.64 µM
same,% inhibition,"AR mRNA [2]; Table 21, 500 nM oligonucleotide, electroporation, approximately 24 hours, relative to untreated control",37%
549388 (kT*k[5mC]*k[5mC]*d[5mC]*dT*dT*d[5mC]*dA*dG*d[5mC]*dG*dG*d[5mC]*kT*k[5mC]*kT; antisense) [compound 549388],percent inhibition of AR,"AR mRNA [1]; 55.6 nM, ~16 h, Table 3",15%
same,percent inhibition of AR,"AR mRNA [1]; 166.7 nM, ~16 h, Table 3",42%
same,percent inhibition of AR,"AR mRNA [1]; 500.0 nM, ~16 h, Table 3",36%
same,percent inhibition of AR,"AR mRNA [1]; 1500.0 nM, ~16 h, Table 3",86%
same,IC50,"AR mRNA [1]; ~16 h, Table 3",0.428 µM
same,% inhibition,AR mRNA [2]; [8],88%
584139 (kT*k[5mC]*kT*dA*dA*dA*d[5mC]*dA*dT*dG*dA*d[5mC]*dG*kG*kT*kT; antisense) [compound 584139],"percent inhibition of AR, 46.9 nM",AR mRNA [1]; [3],13%
same,"percent inhibition of AR, 187.5 nM",AR mRNA [1]; [3],33%
same,"percent inhibition of AR, 750.0 nM",AR mRNA [1]; [3],56%
same,"percent inhibition of AR, 3000.0 nM",AR mRNA [1]; [3],85%
same,IC50,AR mRNA [1]; [3],0.4 µM
same,% inhibition,AR mRNA [2]; [4],37%
